Counter-ions that a name gives are not always drawn. Like-named read-outs stand apart in the source and are kept apart here.
Experiments:
ABCB1 [1] = biological target: T1, ABCB1 (Homo sapiens, UniProt P08183); test: Cell and fluorescent imaging-based ABCB1-mediated efflux assay (IncuCyte FLR) in KB-V1 cells; conditions: for inhibition at 10 µM: human;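 as to all read-outs here: ABCB1-overexpressing KB-V1 cells, live-cell fluorescence imaging of retained calcein (from calcein AM) or MitoTracker Green FM, no preincubation with inhibitor, XR9576 as positive control, calcein AM alone as background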
T1 sequence (P08183 whole entry): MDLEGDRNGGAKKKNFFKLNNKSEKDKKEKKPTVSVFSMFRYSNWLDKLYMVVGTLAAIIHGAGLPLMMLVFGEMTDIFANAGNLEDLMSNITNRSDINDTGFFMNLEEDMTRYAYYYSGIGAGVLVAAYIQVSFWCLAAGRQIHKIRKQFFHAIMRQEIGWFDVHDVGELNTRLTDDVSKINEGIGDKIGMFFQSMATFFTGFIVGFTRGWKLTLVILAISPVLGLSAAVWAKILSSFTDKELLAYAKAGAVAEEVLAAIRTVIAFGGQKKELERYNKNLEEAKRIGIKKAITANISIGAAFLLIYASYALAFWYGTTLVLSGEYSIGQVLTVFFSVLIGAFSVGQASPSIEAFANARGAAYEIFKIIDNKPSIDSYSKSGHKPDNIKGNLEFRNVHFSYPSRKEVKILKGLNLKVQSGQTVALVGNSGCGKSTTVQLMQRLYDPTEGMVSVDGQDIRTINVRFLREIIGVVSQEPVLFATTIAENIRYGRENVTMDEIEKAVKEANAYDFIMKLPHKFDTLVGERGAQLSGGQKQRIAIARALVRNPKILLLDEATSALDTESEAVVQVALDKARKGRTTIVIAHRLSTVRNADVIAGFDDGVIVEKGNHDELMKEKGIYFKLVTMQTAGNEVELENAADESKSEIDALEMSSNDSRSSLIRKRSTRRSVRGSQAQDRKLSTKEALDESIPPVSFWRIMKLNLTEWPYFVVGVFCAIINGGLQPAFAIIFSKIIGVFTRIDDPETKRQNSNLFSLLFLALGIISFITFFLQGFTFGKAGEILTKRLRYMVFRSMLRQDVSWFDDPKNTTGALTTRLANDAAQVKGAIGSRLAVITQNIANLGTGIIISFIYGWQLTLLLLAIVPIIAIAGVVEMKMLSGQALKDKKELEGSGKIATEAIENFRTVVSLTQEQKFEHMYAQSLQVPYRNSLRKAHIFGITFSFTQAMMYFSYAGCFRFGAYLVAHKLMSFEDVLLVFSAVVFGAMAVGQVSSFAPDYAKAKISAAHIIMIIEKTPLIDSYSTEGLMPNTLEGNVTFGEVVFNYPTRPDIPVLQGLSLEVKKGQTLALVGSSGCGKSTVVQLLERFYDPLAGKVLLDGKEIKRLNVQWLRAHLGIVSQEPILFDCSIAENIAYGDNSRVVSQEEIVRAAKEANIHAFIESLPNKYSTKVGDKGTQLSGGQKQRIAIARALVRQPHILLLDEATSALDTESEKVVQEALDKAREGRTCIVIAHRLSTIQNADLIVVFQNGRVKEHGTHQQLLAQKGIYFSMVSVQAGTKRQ
Experimental: (§2) The cell- and fluorescent imaging-based ABCB1-mediated efflux assays were carried out using ABCB1-overexpressing KB-V1 cells and calcein AM. Calcein AM was diluted in the culture media and then added directly to the cells grown in 96- or 384-well plates at the indicated final concentrations. Additionally, MitoTracker® Green FM was used as a fluorescent substrate in the ABCB1-mediated efflux assay. […] There was no incubation time after addition of the ABCB1 inhibitors. The only time delay between the addition of the inhibitors/drugs and the addition of calcein AM was the sample handling time. […] All wells contained 0.1% DMSO; except when the drugs were serial-diluted, in which the wells with the highest drug concentration contained 0.1% DMSO and the rest of wells contained diluted DMSO from the same working stock solution. The cell culture vessels were placed in a fluorescent and phase-contrast live cell imaging system, the IncuCyte^TMFLR (Essen BioScience, Ann Arbor, MI), in a 37°C incubator supplemented with 5% CO2. Both fluorescent and phase-contrast images (750×950 µm) were taken by the IncuCyte^TMFLR at the indicated time intervals. The approximate number of cells scanned was 200–600 cells per image. Auto-fluorescence of the compounds was determined by treating the cells with the drug candidates in the absence of calcein AM and fluorescence was measured using the IncuCyte^TMFLR and a fluorescent plate reader (Infinite 200 PRO, Tecan System, Inc., San Jose, CA).
(§3) The IncuCyte^TMFLR was programmed to take 4 images per well of a 96-well plate or a single image per well of a 384-well plate. It takes 27 minutes to scan an entire 96-well plate at 4 images per well and 27 minutes to scan an entire 384-well plate at one image per well, respectively. Because intracellular accumulation of calcein is time sensitive, only 3 to 6 columns of a 96-well plate were used for a single experiment. Three positive control (XR9576) wells and three background (calcein AM only) wells were included in each 96-well plate or in each column in the 384-well plates. All experiments were repeated at least twice unless otherwise indicated.
(§4) The IncuCyte^TMFLR software provides the mean of the total fluorescence intensity (mean fluorescence intensity), obtained by averaging fluorescent intensities from all the pixels in the image(s) from each well. The automatically generated mean fluorescence intensity is not corrected for the background fluorescence, which can often lead to distorted outputs. Additional software, the Object Counting v2.0 Analysis software provided by the IncuCyte^TMFLR, can assist further quantification and analysis of the fluorescent images. Using this software, a segmentation mask was generated to separate fluorescent (foreground) and non-fluorescent (background) objects so that the sum of the fluorescent intensity of the positive cells can be calculated without the interference from the background fluorescence. The Object Summed Intensity per mm^2 from the metrix menu was chosen to indicate the background corrected fluorescent intensity of each well and designated as the object intensity.
(§5) The relative inhibition of each compound on calcein AM efflux was calculated by the following equation: [drawing 1] where X represents the mean fluorescence intensities or the object intensities, and T denotes the test compound. The final results were normalized to either the maximum values of the test compounds in the dose-response experiments or to the values from XR9576 (0.2 µM) treated cells.

ABCB1 [2] = biological target: T1, ABCB1; test: in vitro
Experimental: as §2, §3, §4, §5

ABCB1 [3] = biological target: T1, ABCB1
Experimental: as §2, §3, §4, §5

[4] = Cell viability assay (CCK-8); conditions: human, HCT-15-Pgp cells
Experimental: HCT-15-Pgp cells were plated and cultured in 96-well plates for 1 or 2 days, until they reached 50–80% confluency. […] Cell viability was examined using the Cell Counting Kit-8 (CCK-8, Dojindo Molecular Technologies, Inc., Rockville, MD); which functions similar to MTT assays by reduction of the tetrazolium salt, WST-8, to yield a yellow-colored and water-soluble formazan dye (measured at 450 nm).

KB-V1 cells = test: Cytotoxicity to KB-V1 cells seen in the imaging assay; format: cell-based, human
Text: (§1) Compounds that auto-fluoresced were excluded from further analysis.

ABCB1 [5] = biological target: T1, ABCB1; test: Flow cytometry-based ABCB1-mediated efflux assay in KB-V1 cells; conditions: compound 5 µM, calcein AM 1 µM
Experimental: (§6) An ABCB1-mediated calcein AM efflux assay was also performed with KB-V1 cells and evaluated by flow cytometry as described previously [32]. KB-V1 cells were detached by brief trypsin treatment, followed by addition of medium containing 10% serum to neutralize the trypsin. The detached cells were collected by centrifugation, aliquoted at 500,000 cells/tube, and incubated with the test compounds at the indicated concentrations and calcein AM (1 µM) or MitoTracker® Green FM for 10 minutes in a 37°C water bath. After incubation, the cells were collected by centrifugation at 800xg for 5 minutes and resuspended in PBS/0.1% BSA. The fluorescent substrates retained in KB-V1 cells were detected by flow cytometry (BD FACSCalibur, BD Biosciences, Franklin Lakes, NJ). The data were analyzed with FlowJo 7.2.2 (Tree Star, Inc., Ashland, OR) and presented as histograms. […] Total number of cells counted per sample was 10,000.

ABCB1 [6] = biological target: T1, ABCB1; test: Photolabeling of ABCB1 with [125I]IAAP; format: binding; set-up: made in house; host or cells: Hifive insect cells (crude / plasma membranes); conditions: compound 20 µM, membranes from Hifive cells overexpressing human ABCB1, autoradiograph
Experimental: The interaction of selected compounds with ABCB1 was assessed by an in vitro photolabeling assay as previously described [32].

ABCB1 [7] = biological target: T1, ABCB1; remark: listed apart in the source
Experimental: as §6

KB-3-1 cells = test: Cell imaging-based calcein accumulation in parental KB-3-1 cells; set-up: species or system human; conditions: 1 µM calcein AM, 1 hour, mean fluorescence intensities
Experimental: ABCB1-overexpressing KB-V1 cells, previously selected and maintained with vinblastine (1 µg/ml), and the parental line, KB-3-1 cells, were cultured in DMEM supplemented with 10% FBS [26], [27], [28]. Vinblastine was removed from the KB-V1 cell culture medium 2 to 3 days before each experiment. For the efflux assay, the cells were plated at either 20,000 cells per well in 96-well (100 µl/well) or 2,500 cells per well in 384-well (40 µl/well) flat, clear bottom, white or black-walled polystyrene tissue culture plates (uncoated) (Corning Life Sciences, Tewksbury, MA) and incubated at 37°C. After the cell confluence reached 30–80% (1 to 3 days in culture), the cell and fluorescent imaging-based efflux assays were performed. The ABCB1 overexpressing HCT-15-Pgp cells, used for the cytotoxicity assays, were also cultured in DMEM supplemented with 10% FBS [29]. All cell lines were gifts from Dr. Michael M. Gottesman (NCI, Bethesda, MD).
as §1

[8] = ABCB1-overexpressing KB-V1 cells, probe calcein AM (1 µM)

COc1cc2nccc(Oc3ccc(NC(=O)Nc4cc(C)on4)c(Cl)c3)c2cc1OC [AV-951 (Tivozanib), Tivozanib]
inhibition at 10 µM (ABCB1 [1]; [8]): ≥ 50%

CN1CCN(CCOc2cc(OC3CCOCC3)c3c(Nc4c(Cl)ccc5c4OCO5)ncnc3c2)CC1 [AZD0530 (Saracatinib), Saracatinib]
inhibition at 10 µM (ABCB1 [1]; [8]): ≥ 50%

Cn1c(=O)n(-c2ccc(C(C)(C)C#N)cc2)c2c3cc(-c4cnc5ccccc5c4)ccc3ncc21 [BEZ235]
IC50 (ABCB1 [1]): 20.1 µM
inhibition at 10 µM (ABCB1 [2]): ≥ 50%
Inhibition of ABCB1-mediated calcein AM efflux in dose-response experiment (ABCB1 [3]): dose-dependent inhibition

CC[C@@H]1C(=O)N(C)c2cnc(Nc3ccc(C(=O)N[C@H]4CC[C@H](N5CCN(CC6CC6)CC5)CC4)cc3OC)nc2N1C(C)C [BI6727]
inhibition at 10 µM (ABCB1 [1]; [8]): ≥ 50%

CC[C@@H]1C(=O)N(C)c2cnc(Nc3ccc(C(=O)NC4CCN(C)CC4)cc3OC)nc2N1C1CCCC1 [BI 2536]
IC50 at 48 h [4]: 1.28 µM

CN(C)C/C=C/C(=O)Nc1cc2c(Nc3ccc(F)c(Cl)c3)ncnc2cc1O[C@H]1CCOC1 [BIBW2992 (Tovok)]
inhibition at 10 µM (ABCB1 [1]): ≥ 50%

COc1cc(Nc2c(C#N)cnc3cc(OCCCN4CCN(C)CC4)c(OC)cc23)c(Cl)cc1Cl [Bosutinib (SKI-606), Bosutinib]
inhibition at 10 µM (ABCB1 [2]): ≥ 50%

C=CC(=O)Nc1cc2c(Nc3ccc(F)c(Cl)c3)ncnc2cc1OCCCN1CCOCC1 [CI-1033 (Canertinib), Canertinib]
inhibition at 10 µM (ABCB1 [2]): ≥ 50%

COc1cc2c(Oc3ccc4[nH]c(C)cc4c3F)ncnc2cc1OCCCN1CCCC1 [Cediranib (AZD2171), Cediranib]
inhibition at 10 µM (ABCB1 [2]): ≥ 50%

CC1(COc2ccc3c(c2)ncn3-c2ccc3cccc(N4CCC(N)CC4)c3n2)COC1 [Crenolanib (CP-868596), Crenolanib]
inhibition at 10 µM (ABCB1 [1]; [8]): ≥ 50%

C[S+](C)[O-] [DMSO, dimethyl sulfoxide]
Concentration toxic to KB-V1 cells (KB-V1 cells; 1 µM calcein AM (data not shown)): ≥ 0.5 % (v/v)

CO[C@H]1C[C@@H]2CC[C@@H](C)[C@@](O)(O2)C(=O)C(=O)N2CCCC[C@H]2C(=O)O[C@H]([C@H](C)C[C@@H]2CC[C@@H](OP(C)(C)=O)[C@H](OC)C2)CC(=O)[C@H](C)/C=C(\C)[C@@H](O)[C@@H](OC)C(=O)[C@H](C)C[C@H](C)/C=C/C=C/C=C/1C [Deforolimus (MK-8669), Deforolimus]
inhibition at 10 µM (ABCB1 [2]): ≥ 50%

CO[C@H]1C[C@@H]2CC[C@@H](C)[C@@](O)(O2)C(=O)C(=O)N2CCCC[C@H]2C(=O)O[C@H]([C@H](C)C[C@@H]2CC[C@@H](OCCO)[C@H](OC)C2)CC(=O)[C@H](C)/C=C(\C)[C@@H](O)[C@@H](OC)C(=O)[C@H](C)C[C@H](C)/C=C/C=C/C=C/1C [Everolimus (RAD001), Everolimus]
inhibition at 10 µM (ABCB1 [1]; [8]): ≥ 50%

COc1ccc2c3c([nH]c2c1)[C@H](C=C(C)C)N1C(=O)[C@@H]2CCCN2C(=O)[C@@H]1C3 [FTC, fumitremorgin C]
Inhibition of ABCB1-mediated calcein AM efflux, flow cytometry (ABCB1 [5]): neither ABCG2 specific inhibitor FTC nor ABCC1 specific inhibitor MK-571 interfered

C[C@@H](Oc1cc(-n2cnc3ccc(CN4CCN(C)CC4)cc32)sc1C(N)=O)c1ccccc1C(F)(F)F [GSK461364]
inhibition at 10 µM (ABCB1 [1]; [8]): ≥ 50%

COc1cc2ncnc(Nc3ccc(F)c(Cl)c3)c2cc1OCCCN1CCOCC1 [Gefitinib (Iressa), Gefitinib]
inhibition at 10 µM (ABCB1 [2]): ≥ 50%

O=C(c1ccc(Nc2nccc(-c3cc4ccccc4s3)n2)cc1)N1CCC(N2CCCC2)CC1 [IKK 16]
Inhibition of ABCB1-mediated calcein AM efflux, flow cytometry (ABCB1 [5]): inhibited
Competition with [125I]IAAP for direct binding to ABCB1 (ABCB1 [6]): successfully competed
IC50, inhibition of ABCB1-mediated calcein AM efflux (ABCB1 [3]): cannot be calculated from the data
Inhibition of ABCB1-mediated calcein AM efflux in dose-response experiment (ABCB1 [3]): dose-dependent inhibition

Cc1ccc(NC(=O)c2ccc(CN3CCN(C)CC3)cc2)cc1Nc1nccc(-c2cccnc2)n1 [Imatinib (STI571), Imatinib]
inhibition at 10 µM (ABCB1 [2]): ≥ 50%

Cc1cnc(NC(=O)Nc2cc(Br)c(C)cc2OC[C@@H]2CNCCO2)cn1 [LY2603618]
inhibition at 10 µM (ABCB1 [2]): ≥ 50%

CS(=O)(=O)CCNCc1ccc(-c2ccc3ncnc(Nc4ccc(OCc5cccc(F)c5)c(Cl)c4)c3c2)o1 [Lapatinib Ditosylate]
inhibition at 10 µM (ABCB1 [1]; [8]): ≥ 50%

CN(C)C(=O)CCSC(SCCC(=O)O)c1cccc(/C=C/c2ccc3ccc(Cl)cc3n2)c1 (stereo not shown) [MK-571]
Inhibition of ABCB1-mediated calcein AM efflux, flow cytometry (ABCB1 [5]): neither ABCG2 specific inhibitor FTC nor ABCC1 specific inhibitor MK-571 interfered

S=C(NCc1ccc2c(c1)OCO2)N1CCN(c2ncnc3c2oc2ccccc23)CC1 [MP-470 (Amuvatinib), Amuvatinib]
inhibition at 10 µM (ABCB1 [1]; [8]): ≥ 50%

Cc1ccc(NC(=O)c2ccc(CN3CCN(C)CC3)cc2)cc1Nc1nc(-c2cccnc2)cs1 [Masitinib (AB1010), Masitinib]
inhibition at 10 µM (ABCB1 [1]; [8]): ≥ 50%

Cc1cn(-c2cc(NC(=O)c3ccc(C)c(Nc4nccc(-c5cccnc5)n4)c3)cc(C(F)(F)F)c2)cn1 [Nilotinib]
inhibition at 10 µM (ABCB1 [2]): ≥ 50%

CCOc1cc2ncc(C#N)c(Nc3ccc(F)c(Cl)c3)c2cc1NC(=O)/C=C/CN(C)C [Pelitinib]
inhibition at 10 µM (ABCB1 [1]; [8]): ≥ 50%

CO[C@H]1C[C@@H]2CC[C@@H](C)[C@@](O)(O2)C(=O)C(=O)N2CCCC[C@H]2C(=O)O[C@H]([C@H](C)C[C@@H]2CC[C@@H](O)[C@H](OC)C2)CC(=O)[C@H](C)/C=C(\C)[C@@H](O)[C@@H](OC)C(=O)[C@H](C)C[C@H](C)/C=C/C=C/C=C/1C [Rapamycin (Sirolimus), Rapamycin]
inhibition at 10 µM (ABCB1 [2]): ≥ 50%

O=C(Nc1cccc(Cl)c1)Nc1ncc(CCNc2ncnc3ccsc23)s1 [SNS-314 Mesylate]
inhibition at 10 µM (ABCB1 [2]): ≥ 50%

CO[C@H]1C[C@@H]2CC[C@@H](C)[C@@](O)(O2)C(=O)C(=O)N2CCCC[C@H]2C(=O)O[C@H]([C@H](C)C[C@@H]2CC[C@@H](OC(=O)C(C)(CO)CO)[C@H](OC)C2)CC(=O)[C@H](C)/C=C(\C)[C@@H](O)[C@@H](OC)C(=O)[C@H](C)C[C@H](C)/C=C/C=C/C=C/1C [Temsirolimus]
inhibition at 10 µM (ABCB1 [2]): ≥ 50%

C=CC(=O)Nc1cccc(Oc2nc(Nc3ccc(N4CCN(C)CC4)cc3OC)ncc2Cl)c1 [WZ4002]
inhibition at 10 µM (ABCB1 [2]): ≥ 50%

COc1cc2c(cc1OC)CN(CCc1ccc(NC(=O)c3cc(OC)c(OC)cc3NC(=O)c3cnc4ccccc4c3)cc1)CC2 [XR9576, tariquidar]
Inhibition of MitoTracker Green FM efflux, flow cytometry (ABCB1 [7]): blocked
IC50 (ABCB1 [1]): 0.00728 µM
Concentration cytotoxic to cells (KB-V1 cells; imaging assay (not shown)): > 1000 nM
Effect on fluorescent calcein accumulation (KB-3-1 cells): independent
Inhibition of ABCB1-mediated calcein AM efflux in dose-response experiment (ABCB1 [3]): dose-dependent inhibition
Inhibition of MitoTracker Green FM efflux, cell imaging (ABCB1 [3]; human): inhibition on ABCB1-mediated efflux was detected

CCC/C=C/C=C/C(=O)O[C@H]1/C(=C/C(=O)OC)C[C@H]2C[C@H]([C@@H](C)O)OC(=O)C[C@H](O)C[C@@H]3C[C@H](OC(C)=O)C(C)(C)[C@](O)(C[C@@H]4C/C(=C/C(=O)OC)C[C@H](/C=C/C(C)(C)[C@]1(O)O2)O4)O3 [bryostatin-1, Bryostatin-1]
Inhibition of ABCB1-mediated calcein AM efflux, flow cytometry (ABCB1 [5]): failed to inhibit
Inhibition of ABCB1-mediated calcein AM efflux in dose-response experiment (ABCB1 [1]; KB-V1 cells, 96-well plates, 1 µM calcein AM): failed to inhibit

Cc1ccc(C(=O)N(CCCN)[C@@H](c2nc3cc(Cl)ccc3c(=O)n2Cc2ccccc2)C(C)C)cc1 [ispinesib]
Inhibition of ABCB1-mediated calcein AM efflux, flow cytometry (ABCB1 [7]): inhibited
IC50 (ABCB1 [1]): 5.04 µM
Competition with [125I]IAAP for direct binding to ABCB1 (ABCB1 [6]): marginal effect
Inhibition of ABCB1-mediated calcein AM efflux in dose-response experiment (ABCB1 [3]): dose-dependent inhibition
